The numbers were not newly measured in patent US11452734B2, “Method of treating and preventing secondary hyperparathyroidism” (OPKO IRELAND GLOBAL HOLDINGS, LTD., priority 2006, dated 2022), which cites them from elsewhere.

The target of the data set is T1, Vitamin D receptors (VDR) (Homo sapiens, UniProt P11473).
T1 sequence (P11473 1-427): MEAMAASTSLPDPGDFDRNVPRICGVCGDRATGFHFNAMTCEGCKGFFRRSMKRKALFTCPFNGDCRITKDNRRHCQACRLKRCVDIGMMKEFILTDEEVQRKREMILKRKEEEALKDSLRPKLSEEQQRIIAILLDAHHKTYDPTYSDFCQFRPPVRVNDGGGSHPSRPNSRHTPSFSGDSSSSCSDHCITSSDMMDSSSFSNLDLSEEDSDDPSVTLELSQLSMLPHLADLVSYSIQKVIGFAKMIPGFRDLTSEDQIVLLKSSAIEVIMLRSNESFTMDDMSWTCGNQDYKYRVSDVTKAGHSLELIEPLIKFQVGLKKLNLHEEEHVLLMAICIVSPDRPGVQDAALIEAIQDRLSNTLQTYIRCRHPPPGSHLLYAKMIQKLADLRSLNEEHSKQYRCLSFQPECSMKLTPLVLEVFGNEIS

Take `C=C1/C(=C\C=C2/CCC[C@]3(C)[C@@H]([C@H](C)/C=C/[C@@](C)(O)C(C)C)CC[C@@H]23)C[C@@H](O)C[C@@H]1O` [1α,24(S)-dihydroxyvitamin D2]: the “affinities for the VDR, compared among the three Vitamin D hormones” value is listed as “nearly identical”.

On to `C=C1/C(=C\C=C2/CCC[C@]3(C)[C@@H]([C@H](C)/C=C/[C@H](C)C(C)(C)O)CC[C@@H]23)C[C@@H](O)C[C@@H]1O` [1α,25-dihydroxyvitamin D2], for which the “affinities for the VDR, compared among the three Vitamin D hormones” value was “nearly identical”.
